Series [1] can be described thus: Cytotoxicity against NHEM cells assessed as cell viability after 72 hrs by WST-8 assay. In kind it is cell-based. Conditions: human.
Series [2] in a line: Inhibition of melanin synthesis in NHEM cells assessed as [14C]thiouracil incorporation after 72 hrs by liquid scintillation counting. The class given is functional, cell-based, Homo sapiens.

pIC50: −log10 of the molar value. A value given as a limit tells only on which side of the number the result lay.

As for `CC(C)=CCc1cc2c(c(CC=C(C)C)c1O)O[C@H](c1ccc(O)cc1)CC2=O`, in series [1], the Activity entry was “Non-toxic”. Moreover, the pIC50 in series [2] (Homo sapiens, NHEM, 72 h) is 5.60.
On to `CC(C)=CCc1c(O)c(CC=C(C)C)c2c(c1O)C(=O)C[C@@H](c1cc3c(cc1O)OC(C)(C)C=C3)O2` (stereo in doubt) [EUCHRENONE A3], for which the negative-log IC50 (pIC50) in series [2] (nhem) is 5.99.
In the case of `CC(C)=CCc1c(O)c(CC=C(C)C)c2c(c1O)C(=O)C[C@@H](c1cc3c(cc1O)OC(C)(C)C=C3)O2` (stereo in doubt; 45) [EUCHRENONE A3], the Activity result in series [1] was “Non-toxic”. In addition, in series [2] (Homo sapiens, NHEM, 72 h), the pIC50 is 5.82.
As to `CC(C)=CCc1cc([C@@H]2CC(=O)c3c(O)c(CC=C(C)C)c(O)c(CC=C(C)C)c3O2)ccc1O` [AMORILIN], the negative logarithm of the IC50 (pIC50) in series [2] (Homo sapiens, NHEM, 72 h) is 5.92.
Take `CC(C)=CCc1cc([C@@H]2CC(=O)c3c(O)c(CC=C(C)C)c(O)c(CC=C(C)C)c3O2)cc(O)c1O` [AMORISIN]: the negative logarithm of the IC50 (pIC50) in series [2] (Homo sapiens, NHEM, 72 h) was 5.44.
Still for that read-out and setting: under `OC[C@H]1O[C@@H](Oc2ccc(O)cc2)[C@H](O)[C@@H](O)[C@@H]1O` [ARBUTIN] stands 3.99.
With `CC(C)=CCc1cc2c(cc1O)O[C@H](c1ccc(O)cc1)CC2=O` [BAVACHIN], the Activity result in series [1] is recorded as “Non-toxic”. In series [2] (Homo sapiens, NHEM, 72 h), the negative-log IC50 (pIC50) is 5.57.
For `CC(C)=CCc1c(O)c2c(c3c1OC(C)(C)C=C3)O[C@H](c1ccc(O)cc1)CC2=O` [CAJAFLAVANONE], in series [1], the Activity result is on record as “Non-toxic”. Also, the negative logarithm of the IC50 (pIC50) in series [2] (Homo sapiens, NHEM, 72 h) was 5.08.
For `CC(C)=CCc1c(O)ccc2c1O[C@H]1c3ccc(O)c(CC=C(C)C)c3OC[C@@H]21` [ERYBRAEDIN A], in that order: “Non-toxic” and 5.42.
For `CC(C)=CCc1cc2c(cc1O)OC[C@H]1c3ccc(O)c(CC=C(C)C)c3O[C@@H]21` [ERYBRAEDIN C], in that order: “Non-toxic” and 5.70.
As to `CC(C)=CCc1c(O)ccc2c1OC[C@H]1c3ccc4c(c3O[C@@H]21)C=CC(C)(C)O4` [ERYBREADIN B], the Activity result in series [1] is listed as “Non-toxic”. Also, in series [2] (Homo sapiens, NHEM, 72 h), the pIC50 is 5.53.
In the same order, the values of `CC(C)=CCc1cc2c(cc1O)OC[C@H]1c3ccc4c(c3O[C@@H]21)C=CC(C)(C)O4` [FOLITENOL] are “Non-toxic” and 5.74.
For the compound `O=c1c(-c2ccc(O)cc2)coc2cc(O)cc(O)c12` [GENISTEIN], the Activity entry in series [1] is reported as “Non-toxic”. For the same compound, the pIC50 in series [2] (Homo sapiens, NHEM, 72 h) was 4.53.
For the compound `Oc1ccc(O)cc1` [HYDROQUINONE], the pIC50 in series [2] (Homo sapiens, NHEM, 72 h) was 5.66.
Same read-out and setting: under `CC(C)=CCc1cc([C@@H]2CC(=O)c3c(O)c(CC=C(C)C)c(O)c(CC=C(C)C)c3O2)c(O)cc1O` [LESPEDEZAFLAVANONE H] stands 5.11.
For `COc1ccc([C@@H]2CC(=O)c3cc(CC=C(C)C)c(O)c(CC=C(C)C)c3O2)cc1` [LESPEFLORIN A1], in series [1], the Activity result is given as “Non-toxic”. Moreover, the pIC50 in series [2] (Homo sapiens, NHEM, 72 h) is 5.40.
In the case of `COc1ccc([C@@H]2CC(=O)c3ccc(O)c(CC=C(C)C)c3O2)cc1` [LESPEFLORIN A2], the Activity entry in series [1] is listed as “Non-toxic”. In series [2] (Homo sapiens, NHEM, 72 h), the pIC50 is 5.41.
In the case of `CC(C)=CCc1cc2c(c(CC=C(C)C)c1O)O[C@H](c1ccc3c(c1)C=CC(C)(C)O3)CC2=O` [LESPEFLORIN A3], the Activity entry in series [1] was “Non-toxic”. In series [2] (Homo sapiens, NHEM, 72 h), the negative-log IC50 (pIC50) is 5.82.
As for `COc1cc(O)ccc1[C@@H]1CC(=O)c2c(O)cc3c(c2O1)C=CC(C)(C)O3` [LESPEFLORIN A4], the Activity result in series [1] is recorded as “Non-toxic”. Besides, the pIC50 in series [2] (Homo sapiens, NHEM, 72 h) is 5.31.
`CC(C)=CCc1cc([C@H]2Oc3cc(O)c(CC=C(C)C)cc3C(=O)[C@@H]2O)ccc1O` [LESPEFLORIN B1]: the Activity result in series [1] is reported as “Non-toxic”. Moreover, the negative logarithm of the IC50 (pIC50) in series [2] (Homo sapiens, NHEM, 72 h) was 5.54.
In the same order, the values of `CC(C)=CCc1cc2c(c(CC=C(C)C)c1O)O[C@H](c1ccc(O)cc1)[C@@H](O)C2=O` [LESPEFLORIN B2] are “Non-toxic” and 5.66.
`CC(C)=CCc1cc([C@H]2Oc3c(cc(CC=C(C)C)c(O)c3CC=C(C)C)C(=O)[C@@H]2O)ccc1O` [LESPEFLORIN B3]: in series [1], the Activity result is “Non-toxic”. The negative logarithm of the IC50 (pIC50) in series [2] (Homo sapiens, NHEM, 72 h) was 6.17.
Consider `CC(C)=CCc1cc([C@H]2Oc3c(CC=C(C)C)c(O)c(CC=C(C)C)c(O)c3C(=O)[C@@H]2O)ccc1O` [LESPEFLORIN B4], for which the Activity result in series [1] is “Non-toxic”. Moreover, the pIC50 in series [2] (Homo sapiens, NHEM, 72 h) is 5.91.
For `CC(C)=CCc1cc(C(=O)[C@@H](O)Cc2ccc(O)cc2)c(O)cc1O` [LESPEFLORIN C1], in that order: “Non-toxic” and below 3.84.
In the same order, the values of `COc1ccc(C[C@H](O)C(=O)c2cc(CC=C(C)C)c(O)cc2O)cc1` [LESPEFLORIN C2] are “Non-toxic” and 4.55.
For `COc1cc(O)c(CC=C(C)C)cc1C(=O)[C@@H](O)Cc1ccc(O)cc1` [LESPEFLORIN C3], the Activity entry in series [1] is given as “Non-toxic”. In addition, the pIC50 in series [2] (Homo sapiens, NHEM, 72 h) was 5.77.
For `COc1ccc(C[C@H](O)C(=O)c2cc(CC=C(C)C)c(O)cc2OC)cc1` [LESPEFLORIN C4], in that order: “Non-toxic” and below 3.87.
In the same order, the values of `CC(C)=CCc1cc(C(=O)[C@@H](O)Cc2ccc(O)cc2)c(O)c(C)c1O` [LESPEFLORIN C5] are “Non-toxic” and below 3.87.
For `CC(C)=CCc1cc(C(=O)[C@@H](O)Cc2ccc(O)cc2)c(O)c(CC=C(C)C)c1O` [LESPEFLORIN C6], in that order: “Non-toxic” and 4.66.
Regarding `COc1cc2c(cc1C(=O)[C@@H](O)Cc1ccc(O)cc1)C=CC(C)(C)O2` [LESPEFLORIN C7], in series [1], the Activity entry is “Non-toxic”. Besides, the pIC50 in series [2] (Homo sapiens, NHEM, 72 h) is 5.42.
On to `COc1c([C@@H]2COc3c(ccc(O)c3CC=C(C)C)C2=O)ccc(O)c1CC=C(C)C` [LESPEFLORIN D1], for which the Activity entry in series [1] is “Non-toxic”. In addition, the negative-log IC50 (pIC50) in series [2] (Homo sapiens, NHEM, 72 h) was 5.83.
As to `COc1c(O)ccc2c1OCC(c1ccc(O)c(OC)c1OC)=C2` [LESPEFLORIN E1], in series [1], the Activity entry is “Non-toxic”. For the same compound, the pIC50 in series [2] (Homo sapiens, NHEM, 72 h) was 5.37.
For `COc1c(O)ccc(-c2cc3ccc(O)c(OC)c3o2)c1OC` [LESPEFLORIN F1], in that order: “Non-toxic” and 4.97.
In the same order, the values of `COc1cc2c(CO)c(-c3ccc(O)cc3O)oc2c(CC=C(C)C)c1O` [LESPEFLORIN F2] are “Non-toxic” and 5.08.
For `COc1cc2c(cc1O)O[C@H]1c3ccc(O)c(CC=C(C)C)c3OC[C@@H]21` [LESPEFLORIN G1], in that order: “Non-toxic” and 5.43.
Regarding `COc1c(O)cc2c(c1CC=C(C)C)O[C@H]1c3cc(CC=C(C)C)c(O)cc3OC[C@@H]21` [LESPEFLORIN G2], the Activity entry in series [1] is reported as “Non-toxic”. Moreover, in series [2] (Homo sapiens, NHEM, 72 h), the negative-log IC50 (pIC50) is 5.68.
Regarding `COc1c(O)cc2c(c1CC=C(C)C)O[C@H]1c3c(cc(O)c(CC=C(C)C)c3OC)OC[C@@H]21` [LESPEFLORIN G3], the Activity entry in series [1] was “Non-toxic”. In addition, the negative logarithm of the IC50 (pIC50) in series [2] (Homo sapiens, NHEM, 72 h) was 5.69.
In the same order, the values of `CC(C)=CCc1cc2c(cc1O)OC[C@H]1c3cc(C)c(O)c(CC=C(C)C)c3O[C@@H]21` [LESPEFLORIN G4] are “Non-toxic” and 5.49.
Consider `CC(C)=CCc1c(O)c(C)cc2c1O[C@H]1c3ccc(O)c(CC=C(C)C)c3OC[C@@H]21` [LESPEFLORIN G5], for which, in series [1], the Activity result was “Non-toxic”. Further, the pIC50 in series [2] (Homo sapiens, NHEM, 72 h) was 5.82.
With `COc1c(C)cc2c(c1CC=C(C)C)O[C@H]1c3ccc(O)cc3OC[C@@H]21` [LESPEFLORIN G6], the Activity entry in series [1] is on record as “Non-toxic”. In addition, the pIC50 in series [2] (Homo sapiens, NHEM, 72 h) is 5.21.
With `COc1cc2c(c(CC=C(C)C)c1O)O[C@H]1c3ccc(O)cc3OC[C@@H]21` [LESPEFLORIN G7], the Activity entry in series [1] is listed as “Non-toxic”. For the same compound, the negative logarithm of the IC50 (pIC50) in series [2] (Homo sapiens, NHEM, 72 h) is 5.22.
For `COc1ccc2c(c1)OC[C@H]1c3cc(O)c(OC)c(CC=C(C)C)c3O[C@@H]21` [LESPEFLORIN G8], in that order: “Non-toxic” and 5.79.
In the same order, the values of `COc1ccc2c(c1)OC[C@H]1c3cc(OC)c(O)c(CC=C(C)C)c3O[C@@H]21` [LESPEFLORIN G9] are “Non-toxic” and 5.08.
`CC(C)=CCc1c(O)c(C)cc2c1O[C@H]1c3ccc(O)cc3OC[C@@H]21` [LESPEFLORIN G10]: the Activity entry in series [1] is recorded as “Non-toxic”. In series [2] (Homo sapiens, NHEM, 72 h), the pIC50 is 5.84.
As to `CC(C)=CCc1cc2c(cc1O)OC[C@H]1c3cc(O)c4c(c3O[C@@H]21)C=CC(C)(C)O4` [LESPEFLORIN G11], the Activity entry in series [1] is listed as “Non-toxic”. Besides, the pIC50 in series [2] (Homo sapiens, NHEM, 72 h) is 5.54.
In the case of `COc1ccc2c(c1)OC[C@H]1c3cc(O)c4c(c3O[C@@H]21)C=CC(C)(C)O4` [LESPEFLORIN G12], the Activity result in series [1] is listed as “Non-toxic”. Also, in series [2] (Homo sapiens, NHEM, 72 h), the pIC50 is 5.08.
For `COc1ccc2c(c1)OCc1c-2oc2c(CC=C(C)C)c(O)c(O)cc12` [LESPEFLORIN H1], in that order: “Non-toxic” and 4.57.
For `COc1ccc2c(c1)OCc1c-2oc2c3c(c(O)cc12)OC(C)(C)C=C3` [LESPEFLORIN H2], in that order: “Non-toxic” and 5.83.
Take `CC(C)=CCc1cc2c(cc1O)oc(=O)c1c3cc(O)c(O)cc3oc21` [LESPEFLORIN I1]: the Activity entry in series [1] is listed as “Non-toxic”. For the same compound, the pIC50 in series [2] (Homo sapiens, NHEM, 72 h) was 5.49.
In the same order, the values of `CC(C)=CCc1cc2c(cc1O)oc(=O)c1c3cc(O)c(O)c(CC=C(C)C)c3oc21` [LESPEFLORIN I2] are “Non-toxic” and 4.55.
`COc1ccc2c(c1)oc(=O)c1c3cc(O)c(O)c(CC=C(C)C)c3oc21` [LESPEFLORIN I3]: in series [1], the Activity entry was “Non-toxic”. The pIC50 in series [2] (Homo sapiens, NHEM, 72 h) was 4.56.
In the same order, the values of `CC(C)=CCc1cc(-c2oc3c(CC=C(C)C)c(O)c(O)cc3c2C(=O)c2cc3c(c(CC=C(C)C)c2O)O[C@H]2c4ccc(O)c(CC=C(C)C)c4OC[C@@H]32)c(O)cc1O` [LESPEFLORIN J1] are “Non-toxic” and 4.40.

For the origin of these results see ChEMBL document CHEMBL1151969, “Melanin synthesis inhibitors from Lespedeza floribunda” (J Nat Prod, 2009).
